Values of other authors, collected in patent publication CN104013603A, “一种烟碱缓释贴剂” (Shanghai Tobacco Group Co Ltd, priority 2014, dated 2014).

Legend:
[1] = background statement
[2] = background statement; remark: listed apart in the source

**Q.** With CN1CCC[C@H]1c1cccnc1 [尼古丁, (S)-3-(1-Methyl-2-pyrroli-dinyl)pyridine] as the compound, how does the solubility [1] read?
**A.** 可溶于水、乙醇、氯仿、乙醚、油类

**Q.** What about the penetration into skin [2] of the same compound?
**A.** 可渗入皮肤
